Data set [1] concerns the target T1, Organic cation/carnitine transporter 2 (Homo sapiens, UniProt O76082).
T1 sequence (O76082 whole entry): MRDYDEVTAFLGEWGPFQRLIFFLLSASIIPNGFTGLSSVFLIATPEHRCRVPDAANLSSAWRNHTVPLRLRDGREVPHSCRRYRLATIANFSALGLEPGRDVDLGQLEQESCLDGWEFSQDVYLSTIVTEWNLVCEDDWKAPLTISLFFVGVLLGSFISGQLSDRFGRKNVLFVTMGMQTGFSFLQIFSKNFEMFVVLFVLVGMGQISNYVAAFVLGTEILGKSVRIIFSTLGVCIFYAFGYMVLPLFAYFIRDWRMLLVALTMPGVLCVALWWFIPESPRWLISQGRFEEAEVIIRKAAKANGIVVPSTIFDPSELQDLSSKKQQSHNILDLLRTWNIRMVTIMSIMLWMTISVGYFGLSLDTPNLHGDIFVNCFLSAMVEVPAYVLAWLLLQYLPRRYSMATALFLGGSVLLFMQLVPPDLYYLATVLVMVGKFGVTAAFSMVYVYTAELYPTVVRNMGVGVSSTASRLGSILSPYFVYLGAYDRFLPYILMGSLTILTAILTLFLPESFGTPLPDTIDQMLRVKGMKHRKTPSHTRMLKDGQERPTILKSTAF
Put plainly: TP_TRANSPORTER: inhibition of Carnitine uptake (Carnitine: 0.02 uM, PCG: 2500 uM) in OCTN2-expressing HeLa cells. Format: functional, cell-based.

Data set [2] deals with T1, Organic cation/carnitine transporter 2. Put plainly: TP_TRANSPORTER: inhibition of Carnitine uptake (Carnitine: 0.02 uM, Cyclacillin: 2500 uM) in OCTN2-expressing HeLa cells. Format: functional, cell-based.

We go through 2 compounds from ChEMBL document CHEMBL2074042, “beta-lactam antibiotics as substrates for OCTN2, an organic cation/carnitine transporter” (J Biol Chem, 2000).

Regarding `CC1(C)S[C@@H]2[C@H](NC(=O)Cc3ccccc3)C(=O)N2[C@H]1C(=O)O` [PENICILLIN G], the Activity result in data set [1] is “is not an inhibitor [-]”. `CC1(C)S[C@@H]2[C@H](NC(=O)C3(N)CCCCC3)C(=O)N2[C@H]1C(=O)O` [CYCLACILLIN]: the Activity entry in data set [2] was “is not an inhibitor [-]”.
